Results from US20250302862A1, “SMALL RNA DRUG FOR INHIBITING ACTIVITY OF CANCER CELLS” (Institute of Basic Medical Sciences Chinese Academy of …, priority 2022, published 2025).

Experiments:
Type in all cases: cell-based, human
[1] = tested on: prostate cancer PC-3 cells; assay: Apoptosis detection (Annexin V / PI); settings: 100 nmol/L, 48 h
Method: 1) PC-3 cells with a cell density of more than 90% in 10 cm^2 dishes were plated in 12-well plates according to the cell growth rate, and transfected after 12 h, and the groups were divided as follows: • blank control group (4 wells): 200 uL of opti-MEM per well • negative control group (NC group) and experimental group (3 wells each): the system of each well was as follows • A. 100 uL of opti-MEM and 2 uL of iMax were mixed well for 5 min • B. 100 uL of opti-MEM and 5 uL of small RNA (final concentration 100 nmol/L) were mixed well • C. solution A and solution B were mixed well and let stand for 15 min, and then was added to each well at a 200 uL system • Note: 100 uL of nuclease-free water was added to 2 nmol of small RNA dry powder for dissolution at a storage concentration of 20 umol/L
The supernatant and cells were collected after 48 h and washed twice with pre-chilled PBS. The 4 tubes of cells in the blank control group were added respectively with: (1) 200 uL of 1× binding buffer; (2) 200 uL of 1× binding buffer and 5 uL of Annexin V stain; (3) 200 uL of 1× binding buffer and 5 uL of PI stain; (4) 200 uL of 1× binding buffer, 5 uL of Annexin V stain and 5 uL of PI stain. […] The live cell population and the position of quadrant gate were selected according to the blank control group, and then the apoptosis of the NC group and the experimental group was detected.

[2] = tested on: pancreatic cancer BXPC-3 cells; assay: Cell invasion (Matrigel Transwell); settings: 100 nmol/L, jetPRIME, 72 h
Method: 1) Matrigel basement membrane matrix was thawed on crushed ice one night before and diluted with serum-free medium to a final concentration of 200-300 ug/mL. 100 uL of the diluted Matrigel was added to each upper chamber, let stand at 37° C. for 30 min, and the supernatant was aspirated. ASPC-1 cells and BXPC-3 cells with a cell density of more than 90% in 10 cm^2 dishes were digested and resuspended with 1 mL of serum-free medium and counted. 100,000 cells (100 uL) were plated in the upper chamber, and complete medium with 10% FBS was added to the lower chamber of each chamber. […]
1) Matrigel basement membrane matrix was thawed on crushed ice one night before and diluted with serum-free medium to a final concentration of 200-300 ug/mL. […] BXPC-3 cells with a cell density of more than 90% in 10 cm^2 dishes were digested and resuspended with 1 mL of serum-free medium and counted. […]

[3] = tested on: pancreatic cancer PANC-1 cells; assay: Apoptosis detection (Annexin V / PI); settings: 100 nmol/L, jetPRIME, 72 h
Method: (§1) 1) PANC-1 cells and BXPC-3 cells with a cell density of more than 90% in 10 cm^2 dishes were plated in 12-well plates according to the cell growth rate, and transfected after 12 h, and the groups were divided as follows: • blank control group (4 wells): 100 uL of jetPRIME Buffer per well • negative control group (NC group) and experimental group (3 wells each): 100 uL of jetPRIME Buffer was mixed well with 3 uL of jetPRIME reagent and 5 uL of small RNA for each well and let stand for 15 min, and then was added to each well at a 100 uL system (final concentration 100 nmol/L) • Note: 100 uL of nuclease-free water was added to 2 nmol of small RNA dry powder for dissolution at a storage concentration of 20 umol/L
(§2) The supernatant and cells were collected after 72 h and washed twice with pre-chilled PBS. The 4 tubes of cells in the blank control group were added respectively with: (1) 200 uL of 1× binding buffer; (2) 200 uL of 1× binding buffer and 5 uL of Annexin V stain; (3) 200 uL of 1× binding buffer and 5 uL of PI stain; (4) 200 uL of 1× binding buffer, 5 uL of Annexin V stain and 5 uL of PI stain. 200 uL of 1× binding buffer, 5 uL of Annexin V stain and 5 uL of PI stain were added to each tube of both the NC group and the experimental group. The mixture was mixed well and filtered through 300 mesh filters. The live cell population and the position of quadrant gate were selected according to the blank control group, and then the apoptosis of the NC group and the experimental group was detected.
as §1, with “mixed” for “mixed well”, “per” for “for each”

[4] = tested on: pancreatic cancer BXPC-3 cells; assay: Apoptosis detection (Annexin V / PI); settings: 100 nmol/L, jetPRIME, 72 h
Method: as §1, §2
as §1, with “mixed” for “mixed well”, “per” for “for each”

Substance | apoptosis [1] | cell invasion [2] | apoptosis [3] | apoptosis [4]
MDM-sRNA-39: small RNA derived from Maytenus hookeri, sequence GGGAUUGUAGUUCAAUUGGUCAGAGCACC (listed as RNA, chemistry not given here) | promotes | inhibits | promotes | promotes
MDM-sRNA-163: small RNA derived from Maytenus hookeri, sequence UGACUCUAGUCCGACUUUGUGAAAUGACU (listed as RNA, chemistry not given here) | promotes | inhibits | promotes | promotes
